One series deals with hTERT expression. As to the kind of experiment: SEAP assay, H1299/PhTERT-driven SEAP system. The following applies: for activity at 1 µM / activity at 10 µM / activity at 100 µM: Homo sapiens. The class given is cell-based, human. An excerpt:
The condition of the cells for selecting the telomerase inhibitor must be the cancer cells with telomerase activity. H1299 is a non-small cell lung cancer cell line with telomerase activity. The hTERT communication gene linked behind PhTERT which is located at the fifth chromosome of H1299 cell can be expressed; however, this expression is hard to detect. Therefore, the plasmid having the SEAP communication gene linked behind PhTERT was transfected into H1299 cells. Under the identical condition, after PhTERT was activated, the SEAP communication gene linked behind the plasmid was also activated. This gene could be detected by this analytic method while expressing.
If additionally added reagent can inhibit PhTERT, the linked SEAP communication gene will not be expressed, and the hTERT communication gene linked behind PhTERT at the fifth chromosome will not be expressed. […]
The cellular medium after the cellular incubation was transferred into the eppondorf tube, and the activity of endogeneous alkaline phosphatase was inactivated at 65° C. for 10 minutes. After centrification, the mixture was obtained by mixing 50 μl of the supernatant with the equal volume of the SEAP buffer. The mixture and the substrate (120 mM of p-nitrophenylphosphate) were preheated at 37° C. for 10 minutes respectively, and the mixture and the substrate were mixed at a ratio of 1:10 and reacted at 37° C. The absorbance of visible light at 405 nm was determined at the appropriate time intervals, and the enzymatic activity of SEAP was represented by the speed of the increasing absorbance at 405 nm.
The selection of telomerase inhibitors of the anthraquinone compounds provided in the present invention was performed by the H1299/PhTERT-driven SEAP system. SEAP is the communication gene in this drug selection model. The SEAP inhibition was shown as follows. The quantitative cellular medium obtained after the 24-hour drug-treatment and the identical inactivation was reacted with the quantitative SEAP substrate, and the absorbance at 405 nm was detected for 5 time intervals. Subsequently, the linear slope of absorbance to the measuring time was calculated, and the variance of absorbance at 405 nm per minute was represented and compared with the SEAP-producing result of drug-untreated H1299 cells. In addition, the influence of the cell-treated drug solution to the cellular proliferation and the drug toxicity to the cells were considered, and the cellular growth was evaluated by the MTT assay. The drug-treated cells were analyzed by the SEAP assay and the data analysis of MTT assay at the same time. Both results were compared so as to delete the influence of cell number or the activity to SEAP, and the dose-dependent phenomenon could be anticipated in the range of drug concentration designed by the laboratory.
In the preliminary selection, the highest concentration was 1000 μM, and 10-fold serial dilutions were done. Therefore, the final concentrations for treating cells were 1 μM, 10 μM and 100 μM, and the drug concentrations were repeated for 5 times. Since the chemically-synthetic drugs have colors thereon, the SEAP value of drug-treatment without cells was also determined to be the background value which was deducted while treating with the drugs. The candidate drug for inhibiting telomerase on the hTERT gene expression level was evaluated and anticipated.

The next series can be described thus: MTT assay in H1299 cells. Type of series: cell-based. The following applies: human, H1299 cells (H1299/PhTERT-driven SEAP reporter system), H1299, read-out: MTT (Inhibition μM ± SD); for viability at 24 h, 1 µM: compound concentration 1 μM; for viability at 24 h, 10 µM: compound concentration 10 μM; for viability at 24 h, 100 µM: compound concentration 100 μM. Put shortly: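 H1299 cells, 2×10^3 per well, treated with drug 48 h. MTT (5 mg/ml stock) added for 4 h at 37° C, then SDS/DMF lysis overnight; absorbance at 570 nm gives viability, used alongside SEAP reporter readout to correct for cell number.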
Background: Formazan colour is commonly taken as a measure of viable cells.

Where [1] appears, read: NCI-H1299, H1299, compound concentration 1 μM, read-out: SEAP (Inhibition μM ± SD).
[2] abbreviates: NCI-H1299, H1299, compound concentration 10 μM, read-out: SEAP (Inhibition μM ± SD).
The mark [3] stands for this setting: NCI-H1299, H1299, compound concentration 100 μM, read-out: SEAP (Inhibition μM ± SD).
The mark [4] stands for this setting: NCI-H1299, read-out: SEAP (Inhibition μM ± SD).

Molecules are shown by their SMILES. Read-outs that look alike come from different tables or passages of the source.

From patent publication US20090253709A1 (NATIONAL DEFENSE MEDICAL CENTER, priority 2008, published 2009) come the findings set out here.

In the case of `O=C(CCCCl)Nc1ccc2c(c1)C(=O)c1cc(NC(=O)CCCCl)ccc1C2=O` [Compound 25, 2,7-Bis(4-chlorobutyramido)anthraquinone], the activity at 1 µM in the series with hTERT expression (setting [1]) turned out to be 88 ± 19%. Further, the activity at 10 µM with hTERT expression (setting [2]) was found to be 86 ± 13%. For the same compound, the activity at 100 µM with hTERT expression (setting [3]) was 78 ± 17%. In “MTT assay in H1299 cells”, the viability at 24 h, 1 µM stood at 84 ± 18%; the viability at 24 h, 10 µM turned out to be 40 ± 2%; the viability at 24 h, 100 µM stood at 22 ± 2%.
Turning to `CC(=O)Nc1ccc2c(c1)C(=O)c1cc(NC(C)=O)ccc1C2=O` [Compound 26, 2,7-Bis(acetamido)anthraquinone], in the series on hTERT expression (setting [4]), the activity at 1 µM worked out at 97 ± 10%, the activity at 10 µM amounted to 87 ± 14% and the activity at 100 µM came to 74 ± 18%. In addition, in “MTT assay in H1299 cells”, the viability at 24 h, 1 µM worked out at 117 ± 15%; the viability at 24 h, 10 µM was found to be 83 ± 13%; the viability at 24 h, 100 µM was 55 ± 11%.
In the case of `CCC(=O)Nc1ccc2c(c1)C(=O)c1cc(NC(=O)CC)ccc1C2=O` [Compound 27, 2,7-Bis(propionamido)anthraquinone], the activity at 1 µM in the series on hTERT expression (setting [1]) worked out at 90 ± 23%. Also, in the series with hTERT expression (setting [2]), the activity at 10 µM worked out at 95 ± 14%. Besides, the activity at 100 µM in the series with hTERT expression (setting [3]) worked out at 85 ± 16%. Also, in the series “MTT assay in H1299 cells”, the viability at 24 h, 1 µM was 70 ± 25%; the viability at 24 h, 10 µM was determined as 38 ± 17%; the viability at 24 h, 100 µM was 35 ± 15%.
`CCCC(=O)Nc1ccc2c(c1)C(=O)c1cc(NC(=O)CCC)ccc1C2=O` [Compound 28, 2,7-Bis(butyramido)anthraquinone]: in the series with hTERT expression (setting [4]), the activity at 1 µM turned out to be 90 ± 8%, the activity at 10 µM is 83 ± 6% and the activity at 100 µM was 83 ± 4%. In the series “MTT assay in H1299 cells”, the viability at 24 h, 1 µM was found to be 93 ± 14%; the viability at 24 h, 10 µM was 59 ± 13%; the viability at 24 h, 100 µM was determined as 40 ± 15%.
For `O=C(Nc1ccc2c(c1)C(=O)c1cc(NC(=O)c3ccccc3)ccc1C2=O)c1ccccc1` [Compound 29, 2,7-Bis(benzoamido)anthraquinone], the activity at 1 µM in the series with hTERT expression (setting [1]) was 104 ± 10%. Further, the activity at 10 µM in the series on hTERT expression (setting [2]) stood at 92 ± 11%. The activity at 100 µM with hTERT expression (setting [3]) was found to be 85 ± 19%. In the series “MTT assay in H1299 cells”, the viability at 24 h, 1 µM was 71 ± 24%; the viability at 24 h, 10 µM was 47 ± 13%; the viability at 24 h, 100 µM came to 41 ± 30%.
Regarding `O=C(Cc1ccccc1)Nc1ccc2c(c1)C(=O)c1cc(NC(=O)Cc3ccccc3)ccc1C2=O` [Compound 30, 2,7-Bis(phenylacetamido)anthraquinone], the activity at 1 µM in the series on hTERT expression (setting [1]) is 97 ± 18%. In addition, the activity at 10 µM with hTERT expression (setting [2]) came out at 91 ± 21%. Besides, the activity at 100 µM in the series on hTERT expression (setting [3]) amounted to 80 ± 17%. Also, the “SEAP (telomerase inhibition)” value with hTERT expression (low concentration (1 μM)) was found to be 70±6%. Moreover, in “MTT assay in H1299 cells”, the viability at 24 h, 1 µM amounted to 106 ± 12%; the viability at 24 h, 10 µM turned out to be 96 ± 17%; the viability at 24 h, 100 µM worked out at 75 ± 22%.
Regarding `O=C(CCc1ccccc1)Nc1ccc2c(c1)C(=O)c1cc(NC(=O)CCc3ccccc3)ccc1C2=O` [Compound 31, 2,7-Bis(phenylpropionamido)anthraquinone], the activity at 1 µM in the series on hTERT expression (setting [1]) came out at 89 ± 23%. The activity at 10 µM with hTERT expression (setting [2]) was determined as 79 ± 8%. For the same compound, the activity at 100 µM in the series with hTERT expression (setting [3]) came to 61 ± 13%. Moreover, in the series “MTT assay in H1299 cells”, the viability at 24 h, 1 µM was determined as 102 ± 11%; the viability at 24 h, 10 µM is 94 ± 13%; the viability at 24 h, 100 µM worked out at 76 ± 18%.
Take `O=C1c2ccc(NC(=O)C3CC3)cc2C(=O)c2cc(NC(=O)C3CC3)ccc21` [Compound 32, 2,7-Bis(cyclopropanecarbonamido)anthraquinone]: the activity at 1 µM with hTERT expression (setting [1]) was determined as 80 ± 1%. The activity at 10 µM in the series on hTERT expression (setting [2]) was determined as 81 ± 1%. Further, in the series on hTERT expression (setting [3]), the activity at 100 µM was 81 ± 1%. In addition, in the series “MTT assay in H1299 cells”, the viability at 24 h, 1 µM was 46 ± 14%; the viability at 24 h, 10 µM was 36 ± 13%; the viability at 24 h, 100 µM turned out to be 43 ± 15%.
Take `O=C1c2ccc(NC(=O)C3CCCCC3)cc2C(=O)c2cc(NC(=O)C3CCCCC3)ccc21` [Compound 34, 2,7-Bis(cyclohexanecarbonamido)anthraquinone]: the activity at 1 µM with hTERT expression (setting [1]) came out at 96 ± 5%. The activity at 10 µM in the series on hTERT expression (setting [2]) is 93 ± 3%. Also, the activity at 100 µM with hTERT expression (setting [3]) came out at 80 ± 2%. For the same compound, in the series “MTT assay in H1299 cells”, the viability at 24 h, 1 µM was determined as 90 ± 3%; the viability at 24 h, 10 µM amounted to 63 ± 13%; the viability at 24 h, 100 µM came out at 52 ± 16%.
